Test results published in patent US20250302882A1, “PHARMACEUTICAL COMPOSITION FOR PREVENTING OR TREATING NEURODEGENERATIVE DISEASE, CONTAINING, AS ACTIVE INGREDIENTS, CYCLODEXTRIN AND STEM CELLS IN WHICH VEGF IS OVEREXPRESSED” (KYUNGPOOK NATIONAL UNIVERSITY INDUSTRY-ACADEMIC COOPERATION …, priority 2017, published 2025).

Legend:
[1] = introduced into SVZ; Application No. 10-2017-0015676; cited from earlier work
NP-C mice [2] = assay: Survival rate of NP-C mice; format: in vivo; details: VEGFNP-C mice (brain cell-specific VEGF-overexpressed NP-C mice); cyclodextrin 4000 mg/kg once a week s.c.; compared to NP-C mice given cyclodextrin alone
Description: (§1) In Balb/C (Orient, wild type), NPC mutant mice in which an NPC1 gene is deleted (RIKEN, received from Japan, NP-C mice; a weight was smaller than that of normal mice with the same week old, a serious mobility loss was shown from 4 to 6 week old to show tremors and seizures of the limbs, and a lifespan was approximately 9 to 10 weeks), and brain cell-specific VEGF-overexpressed NP-C mice (VEGFNP-C mice; produced through mating of VEGFtg mice overexpressing VEGF in a brain cell-specific promoter (received from University of Heidelberg, Germany, Yaoming Wang et al., (2005)) and NP-C mice, a lifespan was approximately 9 to 10 weeks like the NP-C mice, and brain inflammation and lipid accumulation were alleviated as compared to the NP-C mice), systems thereof were kept by genotyping through PCR. The mice were disposed in a test group by using a block randomization method. In order to eliminate prejudice, […]. All mice tests were approved by Kyungpook National University Institutional Animal Care and Use Committee (IACUC).
(§2) Administration of cyclodextrin (Sigma, H107) and VEGF-overexpressed neural stem cells was performed on a schedule as illustrated in FIG. 1. Specifically, NP-C mice or VEGFNP-C mice were subcutaneously injected with cyclodextrin by 4000 mg/kg from 1 week old. […]

NP-C mice [3] = assay: Change in weight of NP-C mice; format: in vivo; details: VEGFNP-C mice; cyclodextrin 4000 mg/kg once a week s.c.; compared to NP-C mice given cyclodextrin alone
Description: as §1, §2

NP-C mice [4] = assay: Mobility by Rota-rod and Beam tests; format: in vivo; details: for each week age
Experimental: (§3) Administration of cyclodextrin (Sigma, H107) and VEGF-overexpressed neural stem cells was performed on a schedule as illustrated in FIG. 1. Specifically, NP-C mice or VEGFNP-C mice were subcutaneously injected with cyclodextrin by 4000 mg/kg from 1 week old. When the NP-C mice injected with the cyclodextrin were 4-week-old, a cannula was mounted in a subventricular zone (SVZ) for combined injection into the SVZ of the VEGF-overexpressed neural stem cells, and the VEGF-overexpressed neural stem cells (to 1×10^6 cell/3 ul) were injected into the SVZ twice a week. A cell injection rate was implanted at a flow rate of 0.3 μl/min.
In order to confirm the mobility of a mouse in each test group, Rota-rod and Beam tests were performed. In the Rota-rod test (Ugo Basile, Comerio, VA, Italy), a Rota-rod movement was performed three times or more at a rotation rate of 4 rpm using a machine equipped with a rod of a diameter of 3 cm which was appropriately processed for providing a grip, and then an endurance time of a test animal was measured in units of second and an average value thereof was recorded. […] In the Beam test, a mouse was placed on a starting point of a rod of a width of 6 mm or 12 mm and then a time taken to move to an end point was measured. […]

NP-C mice [5] = assay: Inflammatory response of the cortex by GFAP (astrocyte) staining; format: in vivo; details: 10-week-old
Experimental: as §3
(§4) The brain tissue (cortex or cerebellum) of a mouse was cut to a thickness of 50 μm using vibratome, and then cultured with anti-GFAP (rabbit, 1:500, DAKO) and anti-Calbindin (rabbit, 1:100, milipore). In addition, filipin staining (Polysciences, Inc.) was performed on tissues of each organ from the mouse to confirm the accumulation degree of cholesterol. Cortex, cerebellum, liver, lung, kidney, and spleen sites were analyzed using a laser scanning confocal microscope or an Olympus BX51 microscope equipped with Fluoview SV1000 imaging software (Olympus FV1000, Japan). A percentage of an area of a stained area to an area of total tissues was quantified using Metamorph software (Molecular Devices). […]

NP-C mice [6] = assay: Inflammatory response of the cerebellum by GFAP (astrocyte) staining; format: in vivo; details: 10-week-old
Experimental: as §3, §4

NP-C mice [7] = assay: Cerebellar neural cells by Calbindin staining (Purkinje neuron); format: in vivo; details: VEGFNP-C mice; 10-week-old
Experimental: as §3, §4

NP-C mice [8] = assay: Lipid accumulation (sphingosine, sphingomyelin) in cortex, cerebellum and organs, UPLC; format: in vivo; details: VEGFNP-C mice, 10-week-old
Experimental: as §3
The cortex, the cerebellum, and organs (liver, lung, kidney, spleen, etc.) of each mouse were extracted, added with a homogeneous buffer solution containing 50 mM HEPES (Invitrogen), a 150 mM sodium chloride solution (NaCl) (Sigma), 0.2% Igepal CA-630 (Sigma), and a protease inhibitor (Milipore), homogenized using a homogenizer, and then centrifuged at 13,000 rpm for 10 minutes. After 10 minutes, additional centrifugation was performed at 13,000 rpm for 30 minutes. […] A dry lipid extract obtained above was resuspended in 0.2% Igepal CA-630 (Sigma), and then the concentration of each lipid was measured using a UPLC system. […]

NP-C mice [9] = assay: Cholesterol accumulation by Amplex red assay and Filipin staining; format: in vivo; details: VEGFNP-C mice; 10-week-old; cortex, cerebellum and organs
Experimental: as §3, §4

Substance | medicinal effect by improvement of an SVZ environment [1] | survival rate (NP-C mice [2]) | weight (NP-C mice [3]) | mobility (Rota-rod and Beam tests) (NP-C mice [4]; NP-C mice) | mobility (Rota-rod and Beam tests) (NP-C mice [4]; VEGFNP-C mice) | inflammatory response (GFAP: astrocyte) in the cortex (NP-C mice [5]; NP-C mice) | inflammatory response (GFAP: astrocyte) in the cortex (NP-C mice [5]; VEGFNP-C mice) | inflammatory response (GFAP: astrocyte) in the cerebellum (NP-C mice [6]; NP-C mice) | inflammatory response (GFAP: astrocyte) in the cerebellum (NP-C mice [6]; VEGFNP-C mice) | reduced neural cells (Calbindin: Purkinje neuron) in the cerebellum (NP-C mice [7]) | sphingosine accumulated in the cortex and the cerebellum (NP-C mice [8]) | sphingomyelin accumulation (NP-C mice [8]; liver, lung, kidney, spleen, cortex and cerebellum) | accumulation of cholesterol (NP-C mice [9])
VEGF | could not be achieved | – | – | – | – | – | – | – | – | – | – | – | –
cyclodextrin | – | significantly increased | significantly increased | improved mobility compared to NP-C mice | most effective | somewhat alleviated | more effectively improved | alleviated to a certain level | more effectively alleviated | most efficiently increased | most effectively reduced | most effectively reduced | more reduced
